Laboratory results taken from PMC4522185 (ChemistryOpen, 2015).
In brackets after ≈: the same amount, converted by molar mass. Where two headings read alike, the source gives them in different places.

Columns and labels:
[1] = target: T1, Mtb 20S open-gate proteasome (Mycobacterium tuberculosis, UniProt P9WHT9); test: biochemical
[2] = physchem; details: pbs ph 7.4, pH 7.4
[3] = target: human 20S proteasome (chymotrypsin-like activity, with PA28 activator) (Homo sapiens, UniProt P28074); test: fluorogenic suc-LLVY-AMC cleavage; format: biochemical
[4] = physchem; details: pbs, pH 7.4, aqueous buffer
[5] = physchem; details: ch3cn+pbs (1+1), pH 7.4
[6] = target: T1, Mtb 20S open-gate proteasome; test: biochemical; remark: listed apart in the source
[7] = physchem; details: pbs, pH 7.4, aqueous buffer; remark: listed apart in the source
[8] = target: T1, Mtb 20S open-gate proteasome; test: biochemical; remark: listed apart in the source
[9] = physchem; details: ch3cn+pbs (1+1), pH 7.4; remark: listed apart in the source

Sequence of human 20S proteasome (chymotrypsin-like activity, with PA28 activator) (P28074 60-263): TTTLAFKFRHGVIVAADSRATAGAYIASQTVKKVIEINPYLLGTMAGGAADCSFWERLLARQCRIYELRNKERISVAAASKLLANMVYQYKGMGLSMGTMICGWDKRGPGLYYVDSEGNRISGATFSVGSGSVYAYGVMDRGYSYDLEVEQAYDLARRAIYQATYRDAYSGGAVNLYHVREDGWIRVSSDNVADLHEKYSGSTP
Sequence of human 20S proteasome (chymotrypsin-like activity, with PA28 activator) (P25786 whole entry partner): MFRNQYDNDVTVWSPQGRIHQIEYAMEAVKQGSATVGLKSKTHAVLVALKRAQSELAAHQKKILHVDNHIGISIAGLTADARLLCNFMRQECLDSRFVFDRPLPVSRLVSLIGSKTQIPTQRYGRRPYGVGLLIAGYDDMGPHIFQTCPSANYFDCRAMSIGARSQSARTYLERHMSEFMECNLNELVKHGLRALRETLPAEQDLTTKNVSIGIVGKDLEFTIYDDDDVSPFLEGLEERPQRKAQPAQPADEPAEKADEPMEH
T1 sequence (P9WHT9 whole entry): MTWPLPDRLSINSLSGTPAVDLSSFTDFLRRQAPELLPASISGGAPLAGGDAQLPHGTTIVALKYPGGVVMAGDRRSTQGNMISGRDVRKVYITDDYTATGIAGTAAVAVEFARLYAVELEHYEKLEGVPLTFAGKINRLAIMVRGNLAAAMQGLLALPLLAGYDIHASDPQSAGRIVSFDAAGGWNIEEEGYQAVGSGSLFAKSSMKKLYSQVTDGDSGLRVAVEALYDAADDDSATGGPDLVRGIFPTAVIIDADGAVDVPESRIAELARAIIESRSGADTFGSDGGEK
T1 sequence (P9WHU1 whole entry partner): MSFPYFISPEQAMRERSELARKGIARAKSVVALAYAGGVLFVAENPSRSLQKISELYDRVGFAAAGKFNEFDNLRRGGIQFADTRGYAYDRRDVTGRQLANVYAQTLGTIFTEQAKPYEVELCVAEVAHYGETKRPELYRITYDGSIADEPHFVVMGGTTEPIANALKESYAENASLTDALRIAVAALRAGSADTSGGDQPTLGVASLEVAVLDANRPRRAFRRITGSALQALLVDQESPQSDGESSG

Structure (SMILES)	IC50 [1] [µM]	remaining at 24 h, 50 µM [2] [%]	IC50 [3] [µM]	solubility at 18 h [4] [µM]	remaining at 24 h, 50 µM [5] [%]	IC50 [6] [µM]	solubility at 18 h [7] [µM]	IC50 [8] [µM]	remaining at 24 h, 50 µM [9] [%]
COc1ccc(/C=C/c2nsc(=O)o2)cc1 [compound 28, (E)-5-(4-Methoxystyryl)-1,3,4-oxathiazol-2-one]	1.35	1.5	8.5	–	–	–	–	–	–
O=c1oc(C#Cc2ccccc2)ns1 [compound 20, 5-(Phenylethynyl)-1,3,4-oxathiazol-2-one]	–	–	4.2	24.9 (≈ 5.06 µg/mL)	89.6	1.03	–	–	–
O=Cc1ccc(/C=C/c2nsc(=O)o2)o1 [compound 53, (E)-5-(2-(2-Oxo-1,3,4-oxathiazol-5-yl)vinyl)furan-2-carbaldehyde]	–	–	3.3	–	–	–	56.1 (≈ 12.5 µg/mL)	0.735	88.9
O=c1oc(/C=C/c2cccs2)ns1 [compound 51, (E)-5-(2-(Thiophen-2-yl)vinyl)-1,3,4-oxathiazol-2-one]	–	–	18.5	–	–	–	22.6 (≈ 4.77 µg/mL)	2.1	97.6
O=c1oc(/C=C/c2ccsc2)ns1 [compound 52, (E)-5-(2-(Thiophen-3-yl)vinyl)-1,3,4-oxathiazol-2-one]	–	–	11.3	–	–	–	19.7 (≈ 4.16 µg/mL)	1.15	99.1
O=c1oc(/C=C/c2ccncc2)ns1 [compound 49, (E)-5-(2-(Pyridin-4-yl)vinyl)-1,3,4-oxathiazol-2-one]	–	–	77	–	–	–	84.7 (≈ 17.5 µg/mL)	2.75	91.6
